The test system of data set [1] is inactivated monomeric enzyme. Put plainly: Recombinant CYPs phenotyping assay, inactivated enzyme control. It counts as in vitro ADME, human. Particulars: control group with inactivated monomeric enzyme, 1.5 h. The method, then:
Deg-AZM (1 μM) was treated with pooled NADPH (1 mM) and recombinant CYPs (rCYP1A2, rCYP2B6, rCYP2C8, rCYP2C9, rCYP2C19, rCYP2D6, and rCYP3A4, purchased from Research Institute for Liver Diseases Co. Ltd., Shanghai) at 25 pmol/mL for 90 min. The isoform-selective probe substrates served as positive controls (same as the positive controls in HLM phenotyping assays).

Data set [2] concerns the target T1, CYP2D6 (Homo sapiens, UniProt P10635).
T1 construct: from tissue; host or cells: human liver microsomes
The experiment in a line: CYP inhibition in HLMs. In kind it is in vitro ADME. The following applies: HLM 0.5 mg/mL, probe bufuralol, 30 min. How it is done: (§1) CYP inhibition potential of Deg-AZM was assessed in NADPH-fortified HLMs (0.5 mg/mL for CYP1A2, CYP2B6, CYP2C19 and CYP2D6 system, 0.035 mg/mL for CYP2C9 system, 0.05 mg/mL for CYP3A4 system, and 0.025 mg/mL for CYP2C8 system) using CYP probe substrates (same as the positive controls in HLM phenotyping assays). Deg-AZM in triplicates (0, 0.2, 0.6, 2.0, 6.0, 20, and 60 μM) was treated with each probe of CYP1A2 (20 min), CYP2B6 (20 min), CYP2C8 (10 min), CYP2C9 (60 min), CYP2C19 (45 min), CYP2D6 (30 min) and CYP3A4 (15 min). Probe substrate metabolites were analyzed by LC-MS/MS and the peak area ratios of analytes to internal standard (Indapamide) were calculated. The activity of the CYP450 enzyme subtype is directly proportional to the concentration of the corresponding probe substrate metabolites. The average of the measured values of each group was calculated, the control tube value was set as 100%, the residual probe substrate metabolites was calculated in the presence of positive inhibitors and Deg-AZM at series concentration. IC50 values were calculated by the dose-response model (nonlinear regression) in GraphPad Prism software.

Data set [3] deals with T2, CYP2C8 (Homo sapiens, UniProt P10632).
T2 construct: from tissue; host or cells: human liver microsomes
T2 sequence (P10632 1-490): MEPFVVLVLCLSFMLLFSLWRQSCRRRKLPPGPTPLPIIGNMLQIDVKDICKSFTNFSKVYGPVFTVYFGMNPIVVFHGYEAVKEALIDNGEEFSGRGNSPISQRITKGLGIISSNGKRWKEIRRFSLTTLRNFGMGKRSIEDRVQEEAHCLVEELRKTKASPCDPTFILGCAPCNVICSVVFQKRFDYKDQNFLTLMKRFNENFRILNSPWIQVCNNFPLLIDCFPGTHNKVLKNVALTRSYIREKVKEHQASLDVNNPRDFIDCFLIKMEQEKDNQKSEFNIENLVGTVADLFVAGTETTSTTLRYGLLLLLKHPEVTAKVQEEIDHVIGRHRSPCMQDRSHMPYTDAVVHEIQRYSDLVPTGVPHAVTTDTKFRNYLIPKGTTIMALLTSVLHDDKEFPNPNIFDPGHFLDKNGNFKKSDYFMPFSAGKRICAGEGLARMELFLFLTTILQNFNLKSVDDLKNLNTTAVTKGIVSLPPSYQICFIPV
Put plainly: CYP inhibition in HLMs. It counts as in vitro ADME. Particulars: HLM 0.025 mg/mL, probe amodiaquine, 10 min. How it is done:
as §1

The target of data set [4] is T3, CYP2C9 (Homo sapiens, UniProt P11712).
T3 construct: from tissue; host or cells: human liver microsomes
Put plainly: CYP inhibition in HLMs. In kind it is in vitro ADME. The following applies: HLM 0.035 mg/mL, probe diclofenac, 60 min. The method, then:
as §1

The target of data set [5] is T4, CYP3A4 (Homo sapiens, UniProt P08684).
T4 construct: from tissue; host or cells: human liver microsomes
Put plainly: CYP inhibition in HLMs. It counts as in vitro ADME. The following applies: HLM 0.05 mg/mL, probe midazolam, 15 min. How it is done: as §1

Data set [6] has as its target T5, CYP2B6 (Homo sapiens, UniProt P20813).
T5 construct: from tissue; host or cells: human liver microsomes
T5 sequence (P20813 1-491): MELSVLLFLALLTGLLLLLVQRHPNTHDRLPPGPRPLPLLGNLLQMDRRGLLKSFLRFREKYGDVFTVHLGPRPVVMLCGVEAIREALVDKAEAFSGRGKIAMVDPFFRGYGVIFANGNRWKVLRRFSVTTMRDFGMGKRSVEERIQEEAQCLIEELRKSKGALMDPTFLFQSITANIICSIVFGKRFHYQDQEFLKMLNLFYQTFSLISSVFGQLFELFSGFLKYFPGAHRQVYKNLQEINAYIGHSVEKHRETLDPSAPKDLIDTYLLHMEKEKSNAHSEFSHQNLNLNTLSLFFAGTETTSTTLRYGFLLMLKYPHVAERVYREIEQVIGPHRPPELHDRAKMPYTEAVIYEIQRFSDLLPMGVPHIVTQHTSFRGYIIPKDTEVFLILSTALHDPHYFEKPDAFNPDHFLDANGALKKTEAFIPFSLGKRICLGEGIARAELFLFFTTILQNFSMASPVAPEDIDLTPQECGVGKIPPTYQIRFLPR
Put plainly: CYP inhibition in HLMs. In kind it is in vitro ADME. The following applies: HLM 0.5 mg/mL, probe bupropion, 20 min. The method, then:
as §1

Data set [7] addresses T6, CYP1A2 (Homo sapiens, UniProt P05177).
T6 construct: from tissue; host or cells: human liver microsomes
T6 sequence (P05177 1-516): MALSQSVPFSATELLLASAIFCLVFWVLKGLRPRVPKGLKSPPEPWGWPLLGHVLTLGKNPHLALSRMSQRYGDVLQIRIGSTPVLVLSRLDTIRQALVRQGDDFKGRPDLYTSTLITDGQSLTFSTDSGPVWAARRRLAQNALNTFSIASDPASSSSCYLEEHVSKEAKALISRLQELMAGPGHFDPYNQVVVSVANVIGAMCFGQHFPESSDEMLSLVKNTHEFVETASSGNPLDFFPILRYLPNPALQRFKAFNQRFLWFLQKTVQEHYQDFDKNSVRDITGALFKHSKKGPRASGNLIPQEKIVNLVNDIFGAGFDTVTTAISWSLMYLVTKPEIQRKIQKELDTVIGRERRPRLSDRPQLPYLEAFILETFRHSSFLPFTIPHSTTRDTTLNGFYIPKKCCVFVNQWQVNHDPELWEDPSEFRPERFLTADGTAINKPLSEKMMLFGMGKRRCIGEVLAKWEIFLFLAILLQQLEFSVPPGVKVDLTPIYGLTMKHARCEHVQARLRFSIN
The experiment in a line: CYP inhibition in HLMs. It counts as in vitro ADME. The following applies: HLM 0.5 mg/mL, probe phenacetin, 20 min. How it is done: as §1

Data set [8] has as its target T7, CYP2C19 (Homo sapiens, UniProt P33261).
T7 construct: from tissue; host or cells: human liver microsomes
Put plainly: CYP inhibition in HLMs. In kind it is in vitro ADME. Particulars: HLM 0.5 mg/mL, probe S-mephenytoin, 45 min. How it is done: as §1

pIC50: −log10 of the molar value.

T7 sequence (P33261 whole entry): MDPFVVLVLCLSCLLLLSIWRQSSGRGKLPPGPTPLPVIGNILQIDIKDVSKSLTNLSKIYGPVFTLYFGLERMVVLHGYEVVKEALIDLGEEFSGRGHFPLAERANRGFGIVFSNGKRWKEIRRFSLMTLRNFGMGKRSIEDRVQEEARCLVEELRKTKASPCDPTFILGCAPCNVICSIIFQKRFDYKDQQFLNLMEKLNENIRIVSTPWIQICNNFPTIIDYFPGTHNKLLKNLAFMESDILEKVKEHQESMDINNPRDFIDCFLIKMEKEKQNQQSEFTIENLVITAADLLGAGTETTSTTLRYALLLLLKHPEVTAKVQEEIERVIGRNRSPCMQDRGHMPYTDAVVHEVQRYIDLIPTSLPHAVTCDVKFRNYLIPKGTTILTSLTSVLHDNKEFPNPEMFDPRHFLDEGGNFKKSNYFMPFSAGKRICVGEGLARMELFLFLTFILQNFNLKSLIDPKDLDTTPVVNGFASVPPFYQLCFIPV
T3 sequence (P11712 whole entry): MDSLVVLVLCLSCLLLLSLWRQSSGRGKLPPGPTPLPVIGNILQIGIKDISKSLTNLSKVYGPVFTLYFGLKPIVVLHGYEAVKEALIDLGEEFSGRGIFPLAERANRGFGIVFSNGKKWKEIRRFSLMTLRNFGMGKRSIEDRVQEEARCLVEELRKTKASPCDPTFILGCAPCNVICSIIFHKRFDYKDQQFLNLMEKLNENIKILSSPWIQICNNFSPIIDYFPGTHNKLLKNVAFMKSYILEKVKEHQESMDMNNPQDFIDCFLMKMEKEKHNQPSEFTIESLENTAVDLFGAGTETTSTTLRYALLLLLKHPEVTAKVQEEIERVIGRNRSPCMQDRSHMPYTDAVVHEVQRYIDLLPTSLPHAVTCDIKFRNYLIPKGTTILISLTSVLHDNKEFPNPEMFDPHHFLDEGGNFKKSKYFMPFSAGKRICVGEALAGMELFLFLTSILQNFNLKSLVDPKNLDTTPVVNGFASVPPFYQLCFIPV
T1 sequence (P10635 whole entry): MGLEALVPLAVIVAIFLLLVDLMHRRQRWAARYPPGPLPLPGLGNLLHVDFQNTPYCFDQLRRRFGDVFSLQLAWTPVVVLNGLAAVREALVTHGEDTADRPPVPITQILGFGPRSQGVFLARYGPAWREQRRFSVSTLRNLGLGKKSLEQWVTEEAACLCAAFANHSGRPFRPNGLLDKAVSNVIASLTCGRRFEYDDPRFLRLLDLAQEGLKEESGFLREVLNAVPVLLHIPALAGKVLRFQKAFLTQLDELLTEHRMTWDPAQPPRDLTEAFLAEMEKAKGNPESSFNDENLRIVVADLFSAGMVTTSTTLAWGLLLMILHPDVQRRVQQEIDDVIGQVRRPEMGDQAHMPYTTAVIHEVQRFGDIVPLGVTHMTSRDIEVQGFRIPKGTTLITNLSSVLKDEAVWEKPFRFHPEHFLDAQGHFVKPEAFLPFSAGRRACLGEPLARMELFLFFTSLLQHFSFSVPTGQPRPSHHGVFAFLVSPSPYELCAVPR
T4 sequence (P08684 whole entry): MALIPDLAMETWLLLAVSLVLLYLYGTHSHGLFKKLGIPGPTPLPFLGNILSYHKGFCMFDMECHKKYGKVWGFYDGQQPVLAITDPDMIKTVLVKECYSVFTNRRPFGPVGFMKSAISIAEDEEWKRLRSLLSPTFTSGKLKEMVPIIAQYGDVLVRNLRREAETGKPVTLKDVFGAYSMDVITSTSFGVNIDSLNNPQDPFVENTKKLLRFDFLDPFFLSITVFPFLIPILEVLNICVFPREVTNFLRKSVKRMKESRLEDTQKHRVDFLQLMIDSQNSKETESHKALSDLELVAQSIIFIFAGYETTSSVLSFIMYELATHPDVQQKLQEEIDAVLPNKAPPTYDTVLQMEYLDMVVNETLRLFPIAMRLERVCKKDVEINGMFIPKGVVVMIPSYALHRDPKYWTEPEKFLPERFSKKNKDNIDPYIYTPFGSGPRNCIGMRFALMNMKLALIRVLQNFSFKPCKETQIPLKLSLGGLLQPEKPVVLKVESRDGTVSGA

In general, pIC50 refers to −log10 of the IC50, conventionally taken in molar units. A lower pIC50 goes with a large IC50. With `CCC1OC(=O)C(C)C(O)C(C)C(O)C(C)(O)CC(C)CN(C)C(C)C(O)C1(C)O` (centres unmarked) [Deg-AZM, Deglycosylated azithromycin], the “Residual proportion of Deg-AZM” value in data set [1] is reported as 107%. In addition, the pIC50 was 5.10 in data set [2]; under 4.22 in data set [3]; under 4.22 in data set [4]; under 4.22 in data set [5]; 5.05 in data set [6]; under 4.22 in data set [7]. The compound further gave a pIC50 in data set [8] of under 4.22.
